{"source": "patent US8288371B2", "about": "“Ortho pyrrolidine, benzyl-substituted heterocycle CCR1 antagonists for autoimmune diseases and inflammation” (Pharmacopeia, LLC, priority 2007, dated 2012)"}
{"target": "T1, human CCR1 (Homo sapiens, UniProt P32246)", "T1 sequence (P32246 1-355)": "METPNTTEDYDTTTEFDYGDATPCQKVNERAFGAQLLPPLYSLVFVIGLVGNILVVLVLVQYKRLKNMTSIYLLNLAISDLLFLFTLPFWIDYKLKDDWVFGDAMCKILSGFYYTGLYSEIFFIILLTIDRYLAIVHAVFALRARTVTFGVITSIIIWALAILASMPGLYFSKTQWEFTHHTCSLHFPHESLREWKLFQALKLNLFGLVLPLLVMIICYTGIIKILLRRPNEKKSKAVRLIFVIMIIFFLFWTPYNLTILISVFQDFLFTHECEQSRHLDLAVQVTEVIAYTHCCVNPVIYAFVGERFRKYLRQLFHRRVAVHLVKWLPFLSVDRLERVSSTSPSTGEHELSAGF", "experiment": "CCR1 binding protocol (SPA, [125I]-MIP-1α displacement)", "conditions": "cell membrane expressing human CCR1, 0.1 nM [125I]-MIP-1α, 4 hours at ambient temperature; read-out: Relative potency (IC50)", "in_short": "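Human CCR1 membranes (0.5 μg/well) on SPA beads were incubated with compound and 0.1 nM [125I]-MIP-1α (final) for 4 h at ambient temperature. Buffer was Tris pH 7.4 with NaCl, KCl, MnCl and 0.1% BSA. IC50 came from ½-log compound dilutions (10 mM top DMSO stock) by displacement of bound radioligand.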", "units": {"IC50": "nM"}}
{"smiles": "Cc1noc(C)c1NC(=O)N1C[C@H](O)C[C@@H]1c1nnc(C)n1Cc1ccc(Cl)cc1", "note": "[Compound 447]", "IC50": "50 to 500"}
{"smiles": "Cc1nnc([C@H]2CCCN2C(=O)NCC2CCOC2)n1Cc1ccc(Cl)cc1", "note": "(some centres unmarked) [Compound 594]", "IC50": "500 to 5000"}
{"smiles": "Cc1nnc([C@H]2CCCN2C(=O)NC2CCCCC2)n1Cc1ccc(Cl)cc1", "note": "[Compound 185]", "IC50": "50 to 500"}
{"smiles": "Cc1nnc([C@H]2CCCN2C(=O)N[C@H]2CCOc3cc(C(F)(F)F)ccc32)n1[C@@H](C)c1ccc(Cl)cc1", "note": "[Compound 337]", "IC50": "50 to 500"}
{"smiles": "Cc1cc(C)c(S(=O)(=O)O)cc1NC(=O)N1CCC[C@@H]1c1nnc(C)n1Cc1ccc(Cl)cc1", "note": "[Compound 455]", "IC50": "50 to 500"}
{"smiles": "COc1ccc(-c2noc(C)c2NC(=O)N2CCC[C@@H]2c2nnc(C)n2Cc2ccc(Cl)cc2)cc1", "note": "[Compound 303]", "IC50": "< 50"}
{"smiles": "Cc1nnc([C@H]2CCCN2C(=O)NC2(c3ccccc3)CC2)n1Cc1ccc(F)cc1", "note": "[Compound 399]", "IC50": "50 to 500"}
{"smiles": "CC[C@H](NC(=O)N1CCC[C@@H]1c1nnc(C)n1Cc1ccc(Br)cc1)c1cc2ccccc2o1", "note": "[Compound 585]", "IC50": "< 50"}
{"smiles": "COCc1nnc([C@H]2CCCN2C(=O)N[C@H]2CCOc3cc(C(F)(F)F)ccc32)n1Cc1ccc(Cl)cc1", "note": "[Compound 459]", "IC50": "< 50"}
{"smiles": "COC1C[C@H](c2nnc(C)n2Cc2ccc(Cl)cc2)N(C(=O)Nc2ccc(Cl)cc2F)C1", "note": "(some centres unmarked) [Compound 541]", "IC50": "50 to 500"}
{"smiles": "Cc1nnc([C@H]2CCCN2C(=O)N[C@H]2CCOc3cc(C(F)(F)F)ccc32)n1Cc1ccc(Cl)nc1", "note": "[Compound 382]", "IC50": "50 to 500"}
{"smiles": "Cc1cc(C(F)(F)F)cc(C)c1NC(=O)N1CCC[C@@H]1c1nnc(C(C)C)n1Cc1ccc(Cl)cc1", "note": "[Compound 118]", "IC50": "50 to 500"}
{"smiles": "Cc1cc(NC(=O)N2CCC[C@@H]2c2nccn2Cc2ccc(Cl)cc2)c(C(F)(F)F)o1", "note": "[Compound 45]", "IC50": "500 to 5000"}
{"smiles": "Cc1nc(-c2ccccc2)sc1NC(=O)N1CCC[C@@H]1c1ncnn1Cc1ccc(Cl)cc1", "note": "[Compound 83]", "IC50": "50 to 500"}
{"smiles": "O=C(NCc1ccc(Cl)cc1Cl)N1CCC[C@@H]1c1nccn1Cc1ccc(Cl)cc1", "note": "[Compound 43]", "IC50": "50 to 500"}
{"smiles": "Cc1nnc([C@H]2C[C@@H](O)CN2C(=O)Nc2ccc(C(F)(F)F)nc2Cl)n1Cc1ccc(Cl)cc1", "note": "[Compound 494]", "IC50": "50 to 500"}
{"smiles": "Cc1ccc(C(=O)N(C)C)cc1NC(=O)N1CCC[C@@H]1c1nnc(C)n1Cc1ccc(Cl)cc1", "note": "[Compound 208]", "IC50": "< 50"}
{"smiles": "Cc1nnc([C@H]2CCCN2C(=O)N[C@@H]2COCc3c(F)cccc32)n1Cc1ccc(Cl)cc1", "note": "[Compound 141]", "IC50": "50 to 500"}
{"smiles": "Cc1nnc([C@H]2CCCN2C(=O)N[C@@H](C)c2ccc(Cl)c(Cl)c2)n1Cc1ccc(Cl)cc1", "note": "[Compound 168]", "IC50": "< 50"}
{"smiles": "Cc1nnc([C@H]2CCCN2C(=O)Nc2cc(C(=O)N(C)C)ccc2C(F)(F)F)n1Cc1ccc(Cl)cc1", "note": "[Compound 379]", "IC50": "50 to 500"}
{"smiles": "O=C(N[C@H]1CCCOc2ccc(Cl)cc21)N1CCC[C@@H]1c1ncnn1Cc1ccc(Cl)cc1", "note": "[Compound 93]", "IC50": "50 to 500"}
{"smiles": "O=C(Nc1ccc(C(F)(F)F)cc1)N1CCC[C@@H]1c1nccn1Cc1ccc(Cl)cc1", "note": "[Compound 38]", "IC50": "50 to 500"}
{"smiles": "CC[C@H](NC(=O)N1CCC[C@@H]1c1nnc(C)n1Cc1ccc(Cl)cc1)c1ccc(Cl)c(Cl)c1", "note": "[Compound 191]", "IC50": "< 50"}
{"smiles": "Cc1onc(-c2ccccc2)c1NC(=O)N1CCC[C@@H]1c1nnnn1Cc1ccc(Cl)cc1", "note": "[Compound 52]", "IC50": "< 50"}
{"smiles": "CSc1nc(Cl)cc(NC(=O)N2CCC[C@@H]2c2nnc(C)n2Cc2ccc(Cl)cc2)n1", "note": "[Compound 255]", "IC50": "500 to 5000"}
{"smiles": "Cc1nnc([C@H]2CC(F)CN2C(=O)NC(c2ccccc2)c2ccccc2)n1Cc1ccc(Cl)cc1", "note": "(some centres unmarked) [Compound 569]", "IC50": "50 to 500"}
{"smiles": "Cc1cc(C(F)(F)F)ccc1NC(=O)N1CCC[C@@H]1c1nnc(C)n1Cc1ccc(Cl)cc1", "note": "[Compound 190]", "IC50": "< 50"}
{"smiles": "Cc1c(NC(=O)N2CCC[C@@H]2c2nnc(C)n2Cc2ccc(Cl)cc2)cccc1C(=O)N(C)C", "note": "[Compound 238]", "IC50": "50 to 500"}
{"smiles": "Cc1nnc([C@H]2CC(F)CN2C(=O)N[C@H]2CCOc3cc(C(F)(F)F)ccc32)n1Cc1ccc(Cl)cc1", "note": "(some centres unmarked) [Compound 574]", "IC50": "< 50"}
{"smiles": "O=C(N[C@H]1CCCc2cc(C(F)(F)F)ccc21)N1CCC[C@@H]1c1ncnn1Cc1ccc(Cl)cc1", "note": "[Compound 82]", "IC50": "< 50"}
{"smiles": "Cc1nc(C(F)(F)F)ccc1NC(=O)N1CC(F)C[C@@H]1c1nnc(C)n1Cc1ccc(Cl)cc1", "note": "(some centres unmarked) [Compound 580]", "IC50": "< 50"}
{"smiles": "Cc1nnc([C@H]2CCCN2C(=O)NC(C)(C)c2ccccc2)n1Cc1ccc(Cl)cc1", "note": "[Compound 179]", "IC50": "< 50"}
{"smiles": "O=C(N[C@H]1CCOc2cc(Cl)ccc21)N1CCC[C@@H]1c1nncn1Cc1ccc(Cl)cc1", "note": "[Compound 114]", "IC50": "< 50"}
{"smiles": "Cc1nc(Cl)nc(Cl)c1NC(=O)N1CCC[C@@H]1c1nnc(C)n1Cc1ccc(Cl)cc1", "note": "[Compound 188]", "IC50": "< 50"}
{"smiles": "CCc1nnc([C@H]2CCCN2C(=O)NCc2ccc(C(F)(F)F)cc2)n1Cc1ccc(Cl)cc1", "note": "[Compound 311]", "IC50": "50 to 500"}
{"smiles": "Cc1nnc([C@H]2CCCN2C(=O)N[C@H]2CCCc3ccccc32)n1Cc1ccc(Cl)cc1", "note": "[Compound 172]", "IC50": "50 to 500"}
{"smiles": "Cc1nnc([C@H]2CCCN2C(=O)Nc2ccc(S(C)(=O)=O)cc2)n1Cc1ccc(Cl)cc1", "note": "[Compound 330]", "IC50": "50 to 500"}
{"smiles": "Cc1sc(NC(=O)N2CCC[C@@H]2c2nnc(C)n2Cc2ccc(Cl)cc2)nc1-c1ccccc1", "note": "[Compound 597]", "IC50": "500 to 5000"}
{"smiles": "Cc1nnc([C@H]2CCCN2C(=S)Nc2ccc(Cl)cc2F)n1Cc1ccc(Cl)cc1", "note": "[Compound 606]", "IC50": "< 50"}
{"smiles": "Cc1nnc([C@H]2CCCN2C(=O)Nc2ccc(S(C)(=O)=O)cc2Cl)n1Cc1ccc(Cl)cc1", "note": "[Compound 331]", "IC50": "50 to 500"}
{"smiles": "N#C/N=C(\\Nc1ccc(C(F)(F)F)cc1)N1CCC[C@@H]1c1nnc(CO)n1Cc1ccc(Cl)cc1", "note": "[Compound 372]", "IC50": "500 to 5000"}
{"smiles": "Cc1nnc([C@H]2CCCN2C(=O)N[C@H]2CCOc3cc(F)ccc32)n1Cc1ccc(Cl)cc1", "note": "[Compound 152]", "IC50": "< 50"}
{"smiles": "Cc1nc(C(F)(F)F)ccc1CC(=O)N1CCC[C@@H]1c1nncn1Cc1ccc(Cl)cc1", "note": "[Compound 618]", "IC50": "< 50"}
{"smiles": "COC(=O)c1cccc(NC(=O)N2CCC[C@@H]2c2nnc(C)n2Cc2ccc(Cl)cc2)c1C", "note": "[Compound 189]", "IC50": "< 50"}
{"smiles": "Cc1noc(-c2ccccc2)c1NC(=O)N1CCC[C@@H]1c1nncn1Cc1ccc(Cl)cc1", "note": "[Compound 105]", "IC50": "< 50"}
{"smiles": "Cc1nnc([C@H]2CCCN2C(=O)N[C@H](C)c2ccc(Cl)cc2)n1Cc1ccc(Cl)cc1", "note": "[Compound 180]", "IC50": "< 50"}
{"smiles": "Cc1nnc([C@H]2CCCN2C(=O)C(C)c2cccc(Cl)c2)n1Cc1ccc(Cl)cc1", "note": "(some centres unmarked) [Compound 508]", "IC50": "50 to 500"}
{"smiles": "Cc1nnc([C@H]2CCCN2C(=O)N[C@H]2CCOc3cc(C(F)(F)F)ccc32)n1Cc1ccc(F)cc1", "note": "[Compound 411]", "IC50": "< 50"}
{"smiles": "Cc1noc(-c2ccccc2)c1NC(=O)N1CCC[C@@H]1c1oncc1Cc1ccc(Cl)cc1", "note": "[Compound 2]", "IC50": "50 to 500"}
{"smiles": "O=C(N[C@H]1CCOc2cc(C(F)(F)F)ccc21)N1CCC[C@@H]1c1nnc(CO)n1Cc1ccc(Cl)cc1", "note": "[Compound 308]", "IC50": "< 50"}
{"smiles": "Cc1noc(C)c1NC(=O)N1CCC[C@@H]1c1nnc(C)n1[C@H](C)c1ccc(Cl)cc1", "note": "[Compound 365]", "IC50": "50 to 500"}
{"smiles": "Cc1nnc([C@H]2CCCN2C(=O)NC2CCCC2)n1Cc1ccc(Cl)cc1", "note": "[Compound 246]", "IC50": "500 to 5000"}
{"smiles": "Cc1nnc([C@H]2C[C@@H](O)CN2C(=O)N[C@H]2CCOc3cc(C(F)(F)F)ccc32)n1Cc1ccc(Cl)cc1", "note": "[Compound 393]", "IC50": "< 50"}
